Test [1] concerns anaesthetized, spontaneously breathing pigs. Briefly: Pig model of obstructive sleep apnea (OSA): upper airway collapsibility under negative pressure. In kind it is in vivo, German Landrace pigs.
Description: B-3 Animal Model of Obstructive Sleep Apnoea in the Pig
Using negative pressure, it is possible to induce collapse and thus obstruction of the upper respiratory tract in anesthetized, spontaneously breathing pigs [Wirth et al., Sleep 36, 699-708 (2013)].
German Landrace pigs are used for the model. The pigs are anesthetized and tracheotomized. One cannula each is inserted into the rostral and the caudal part of the trachea. Using a T connector, the rostral cannula is connected on the one hand to a device generating negative pressures and on the other hand to the caudal cannula. Using a T connector, the caudal cannula is connected to the rostral cannula and to a tube which allows spontaneous breathing circumventing the upper respiratory tract. By appropriate closing and opening of the tubes it is thus possible for the pig to change from normal nasal breathing to breathing via the caudal cannula during the time when the upper respiratory tract is isolated and connected to the device for generating negative pressures. The muscle activity of the musculus genioglossus is recorded by electromyogram (EMG).
(§1) At certain points in time, the collapsibility of the upper respiratory tract is tested by having the pig breathe via the caudal cannula and applying negative pressures of −50, −100 and −150 cm water head (cmH2O) to the upper respiratory tract. This causes the upper respiratory tract to collapse, which manifests itself in an interruption of the airflow and a pressure drop in the tube system. This test is conducted prior to the administration of the test substance and at certain intervals after the administration of the test substance. An appropriately effective test substance can prevent this collapse of the respiratory tract in the inspiratory phase.
Administration of the test substance can be intranasal, intravenous, subcutaneous, intraperitoneal, intraduodenal or intragastral.
The therapeutic potential of the combination of an α2-Adrenoceptor subtype C (alpha-2C) antagonists with a TASK⅓ channel blocker according to the present invention in sleep apnea can be assessed preclinically in a pig model of obstructive sleep apnea (OSA).
Using negative pressure, it is possible to induce collapse and thus obstruction of the upper respiratory tract in anaesthetized, spontaneously breathing pigs (Wirth K. J. et al., Sleep 36(5) (2013) pp. 699-708).
German Landrace pigs are used for the model. The pigs are anaesthetized and tracheotomized. Two tracheal cannulas are inserted into the trachea, one into the rostral part and the other into the caudal part of the trachea. Using a connection piece, the rostral cannula is connected to a tube to the negative pressure device and to the distal tracheal cannula. The distal tracheal cannula is additionally connected to a tube with an open end to atmosphere via a connection piece that served for free tracheal breathing, circumventing the upper airway. By appropriate opening and clamping of those tubes breathing can be switched from nasal breathing to breathing through the caudal tracheal cannula, circumventing the upper airway, and the (isolated) upper airway can be connected to the negative pressure device, causing airflow in the inspiratory direction.
as §1, with “(cm H2O)” for “(cmH2O)”

The target of the next test is human ADRA2C receptor (Homo sapiens (Human), UniProt P18825). In words: In vitro activity assay to determine the inhibition of recombinant ADRA2C (CHO-K1 cells, aequorin bioluminescence). Conditions: inhibition of noradrenaline-induced bioluminescence signal; some mean values from multiple determinations; read-out: ARα2C IC50. It is filed as cell-based. The essentials: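 IC50 is the concentration halving the agonist (noradrenaline)-evoked rise in aequorin luminescence, fitted by 4-parameter Hill function. Read in stable Gαq/aequorin CHO-K1 cells expressing recombinant human ADRA2C.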

[2] abbreviates: 15 μg/kg i.v. bolus then 5 μg/kg/h i.v. infusion for four hours from 0 min, time 0 min.
Setting [3] is: 15 μg/kg i.v. bolus then 5 μg/kg/h i.v. infusion for four hours from 0 min, time 30 min.
[4] abbreviates: 15 μg/kg i.v. bolus then 5 μg/kg/h i.v. infusion for four hours from 0 min, time 60 min.
Where [5] appears, read: 15 μg/kg i.v. bolus then 5 μg/kg/h i.v. infusion for four hours from 0 min, time 90 min.
Setting [6] is: 15 μg/kg i.v. bolus then 5 μg/kg/h i.v. infusion for four hours from 0 min, time 120 min.
Where [7] appears, read: 0.3 μg intranasal at 0 min, time 0 min.
[8] abbreviates: 0.3 μg intranasal at 0 min, time 10 min.
[9] abbreviates: 0.3 μg intranasal at 0 min, time 30 min.
[10] abbreviates: 0.3 μg intranasal at 0 min, time 60 min.
[11] abbreviates: 0.3 μg intranasal at 0 min, time 90 min.

Chain of human ADRA2C receptor (P18825 whole entry): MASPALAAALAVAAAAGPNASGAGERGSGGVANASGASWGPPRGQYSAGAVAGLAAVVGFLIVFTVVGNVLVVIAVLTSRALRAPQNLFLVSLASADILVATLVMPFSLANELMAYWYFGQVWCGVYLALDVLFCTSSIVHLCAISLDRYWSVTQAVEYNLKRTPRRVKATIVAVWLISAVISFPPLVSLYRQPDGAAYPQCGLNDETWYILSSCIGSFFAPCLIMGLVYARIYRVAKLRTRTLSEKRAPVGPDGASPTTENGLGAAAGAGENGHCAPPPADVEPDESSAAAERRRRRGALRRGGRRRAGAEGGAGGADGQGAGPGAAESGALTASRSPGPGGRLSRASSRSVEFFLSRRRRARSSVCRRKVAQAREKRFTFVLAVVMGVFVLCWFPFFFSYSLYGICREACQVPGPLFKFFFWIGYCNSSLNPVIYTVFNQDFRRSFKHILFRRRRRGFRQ

Turning to `COCC1CCCN(C2CCN(c3ncc(C(=O)NCc4ncc(F)cc4F)s3)CC2)C1` (centres unmarked), the “Percent pigs without collaps −50 cm H2O” value in test [1] (setting [2]) was 0%; in test [1] (setting [3]), 0%; in test [1] (setting [4]), 0%; in test [1] (setting [5]) it was 50%; in test [1] (setting [6]), 0%. The “Percent pigs without collaps −100 cm H2O” value in test [1] (setting [2]) amounted to 0%; in test [1] (setting [3]), 0%; in test [1] (setting [4]), 0%; in test [1] (setting [5]) it was 50%; in test [1] (setting [6]) it was 0%. Further, the “Percent pigs without collaps −150 cm H2O” value in test [1] (setting [2]) is 0%; in test [1] (setting [3]), 0%; in test [1] (setting [4]), 0%; in test [1] (setting [5]), 50%; in test [1] (setting [6]), 0%. The “time points at which upper airway collapsibility was inhibited at all negative pressures of −50, −100 and −150 cm H2O in all pigs” value in test [1] (third set, 15 μg/kg i.v. bolus followed by i.v. infusion of 5 μg/kg/h for four hours, alone) was “at no time point”.
In the case of `COc1ccc(Cl)c(C(=O)N2C3CCC2CN(Cc2c(-c4ccc(C(C)C)cc4)nc4ncccn24)C3)n1` [(3-chloro-6-methoxypyridin-2-yl)(3-{[2-(4-isopropylphenyl)imidazo[1,2-a]pyrimidin-3-yl]methyl}-3,8-diazabicyclo[3.2.1]oct-8-yl)methanone], the “Percent pigs without collaps −50 cm H2O” value in test [1] (setting [7]) came to 0%; in test [1] (setting [8]), 33%; in test [1] (setting [9]) it was 0%; in test [1] (setting [10]) it was 0%; in test [1] (setting [11]), 0%. Also, the “Percent pigs without collaps −100 cm H2O” value in test [1] (setting [7]) stood at 0%; in test [1] (setting [8]), 33%; in test [1] (setting [9]), 0%; in test [1] (setting [10]) it was 0%; in test [1] (setting [11]) it was 0%. In addition, the “Percent pigs without collaps −150 cm H2O” value in test [1] (setting [7]), in test [1] (setting [8]), in test [1] (setting [9]), in test [1] (setting [10]) and in test [1] (setting [11]) was 0% each time.
In the case of `COc1cccc(C(=O)N2CCN(Cc3c(-c4ccc(Cl)cc4)nc4ccccn34)CC2)n1` [(4-{[2-(4-chlorophenyl)imidazo[1,2-a]pyridin-3-yl]methyl}piperazin-1-yl)(6-methoxypyridin-2-yl)methanone], the “Percent pigs without collaps −50 cm H2O” value in test [1] (setting [7]), in test [1] (setting [8]), in test [1] (setting [9]) and in test [1] (setting [10]) was 0% each time. The “Percent pigs without collaps −100 cm H2O” value in test [1] (setting [7]), in test [1] (setting [8]), in test [1] (setting [9]) and in test [1] (setting [10]) was 0% throughout. For the same molecule, the “Percent pigs without collaps −150 cm H2O” value in test [1] (setting [7]), in test [1] (setting [8]), in test [1] (setting [9]) and in test [1] (setting [10]) was 0% in each case.
In the case of `C[C@@H]1CCCN(C2CCN(c3ncc(C(=O)NC4(c5ncc(F)cc5F)CC4)s3)CC2)C1` [Example 129, N-[1-(3,5-Difluoropyridin-2-yl)cyclopropyl]-2-[(3R)-3-methyl[1,4′-bipiperidin]-1′-yl]-1,3-thiazole-5-carboxamide], the IC50 at human ADRA2C receptor is 10 nM.
As for `CCc1nc(N2CCC(N3CCC[C@@H](C)C3)CC2)sc1C(=O)NCc1ncc(F)cc1F` [Example 130, N-[(3,5-Difluoropyridin-2-yl)methyl]-4-ethyl-2-[(3R)-3-methyl[1,4′-bipiperidin]-1′-yl]-1,3-thiazole-5-carboxamide], the IC50 on human ADRA2C receptor was 0.54 nM.
The same measure, in the same setting: next, `O=C(NCc1ncc(F)cc1F)c1cnc(N2CCC(N3CCCC4(C3)CC4(F)F)C(F)C2)s1` (centres unmarked) [Example 134, diamix-2-[4-(1,1-Difluoro-5-azaspiro[2.5]octan-5-yl)-3-fluoropiperidin-1-yl]-N-[(3,5-difluoropyridin-2-yl)methyl]-1,3-thiazole-5-carboxamide]: 0.74 nM.
On to `O=C(NCc1ncc(F)cc1F)c1cnc(N2CCC(N3CCCC4(COC4)C3)CC2)s1` [Example 136], for which the IC50 on human ADRA2C receptor was found to be 320 nM.
The same measure, in the same setting: the figure for `O=C(NCc1ncc(F)cc1F)c1cnc(N2CCC(N3CCCC(C4CC4)C3)CC2)s1` (centres unmarked) [Example 137] is 19 nM; for `O=C(NCc1ncc(F)cc1F)c1cnc(N2CCC(N3CCCC(C4CCC4)C3)CC2)s1` (centres unmarked) [Example 138] it is 6.5 nM.
For the molecule `O=C(NCc1ncc(F)cc1F)c1cnc(N2CCC(N3CCc4ccc(Cl)cc4C3)CC2)s1` [Example 139], the 50% inhibitory concentration (IC50) on human ADRA2C receptor stood at 0.65 nM.
On to `O=C(NCc1ncc(F)cc1F)c1cnc(N2CCC(N3CCc4cccc(Cl)c4C3)CC2)s1` [Example 141], for which the IC50 on human ADRA2C receptor was determined as 8.7 nM.
On to `O=C(NCc1ncc(F)cc1F)c1cnc(N2CCC(N3CCc4c(Cl)cccc4C3)CC2)s1` [Example 142], for which the IC50 on human ADRA2C receptor was 6.7 nM.
On the same count and under the same terms, the figure for `O=C(NCc1ncc(F)cc1F)c1cnc(N2CCC(N3CCc4cccc(F)c4C3)CC2)s1` [Example 144] is 1.8 nM; for `COc1ccc2c(c1)CCN(C1CCN(c3ncc(C(=O)NCc4ncc(F)cc4F)s3)CC1)C2` [Example 145] it is 1 nM; for `Cc1ccc2c(c1)CCN(C1CCN(c3ncc(C(=O)NCc4ncc(F)cc4F)s3)CC1)C2` [Example 146] it is 1.72 nM.
The same measure, in the same setting: the figure for `COCCC1CCCN(C2CCN(c3ncc(C(=O)NCc4ncc(F)cc4F)s3)CC2)C1` (centres unmarked) [Example 148] is 1.3 nM.
Turning to `CC(C)(C)C1CCCN(C2CCN(c3ncc(C(=O)NCc4ncc(F)cc4F)s3)CC2)C1` (centres unmarked) [Example 149], the IC50 on human ADRA2C receptor came out at 35 nM.
`C[C@@H]1CCCN(C2CCN(c3ncc(C(=O)N(C)Cc4ncc(F)cc4F)s3)CC2)C1` [Example 150]: the IC50 at human ADRA2C receptor amounted to 200 nM.
On the same count and under the same terms, the figure for `C[C@@H]1CCCN(C2CCN(c3ncc(C(=O)NCc4ccccc4Cl)s3)CC2)C1` [Example 151] is 170 nM.

The record behind these values is patent US20240000767A1, “COMBINATION OF AN ALPHA2-ADRENOCEPTOR SUBTYPE C (ALPHA-2C) ANTAGONIST WITH A TASK1/3 CHANNEL BLOCKER FOR THE TREATMENT OF SLEEP APNEA” (Bayer Aktiengesellschaft, priority 2020, published 2024).
